Tests used:
Test in all cases: relative viability (nuclei count vs DMSO), 5 days (fraction); higher = more cells survive
[1] = compound: C1CSC2=C(C(=O)N1)SC3=C2C=C(C=C3)O [kb NB 142-70] + CC(C)C[C@H](NC(=O)[C@H](Cc1ccccc1)NC(=O)c1cnccn1)B(O)O [Bortezomib] (partner 0.002 µM)
In short: (§1)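 Lung cancer cell lines in 1536-well plates got either a single drug or a fixed anchor-drug dose together with five library-drug doses (not always all listed) in √10 steps, by pin tool, on the day after seeding. Nuclei were counted after 5 days, and relative viability is the treated-to-vehicle ratio of nuclei counts. Values are medians of duplicate plates.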

[2] = compound: NCC(=O)Nc1ccc(-n2nc(C(F)(F)F)cc2-c2ccc3c(ccc4ccccc43)c2)cc1 + Cc1nc(Nc2ncc(C(=O)Nc3c(C)cccc3Cl)s2)cc(N2CCN(CCO)CC2)n1 [Dasatinib] (partner 0.075 µM)
In short: as §1

[3] = compound: NCC(=O)Nc1ccc(-n2nc(C(F)(F)F)cc2-c2ccc3c(ccc4ccccc43)c2)cc1 + CS(=O)(=O)CCNCc1ccc(-c2ccc3ncnc(Nc4ccc(OCc5cccc(F)c5)c(Cl)c4)c3c2)o1 [Lapatinib] (partner 2 µM)
In short: as §1

[4] = compound: C1CSC2=C(C(=O)N1)SC3=C2C=C(C=C3)O [kb NB 142-70] + Nc1nc2[nH]cc(CCc3ccc(C(=O)N[C@@H](CCC(=O)O)C(=O)O)cc3)c2c(=O)[nH]1 [Pemetrexed] (partner 0.2 µM)
In short: as §1

kb NB 142-70 + Dasatinib = compound: C1CSC2=C(C(=O)N1)SC3=C2C=C(C=C3)O [kb NB 142-70] + Cc1nc(Nc2ncc(C(=O)Nc3c(C)cccc3Cl)s2)cc(N2CCN(CCO)CC2)n1 [Dasatinib] (partner 0.075 µM)
In short: as §1

UMC-11
relative viability ([1]; first compound 0.1 µM): 0.667 | relative viability ([1]; first compound 1 µM): 0.806 | relative viability ([1]; first compound 3.162 µM): 0.703 | relative viability ([2]; first compound 0.02 µM): 0.426 | relative viability ([2]; first compound 0.06325 µM): 0.416 | relative viability ([2]; first compound 0.2 µM): 0.466 | relative viability ([2]; first compound 0.6325 µM): 0.432 | relative viability ([2]; first compound 2 µM): 0.42 | relative viability ([3]; first compound 0.02 µM): 0.952 | relative viability ([3]; first compound 0.06325 µM): 1.09 | relative viability ([3]; first compound 0.2 µM): 0.985 | relative viability ([3]; first compound 0.6325 µM): 1.15 | relative viability ([3]; first compound 2 µM): 0.898 | relative viability ([4]; first compound 0.1 µM): 0.861 | relative viability ([4]; first compound 1 µM): 0.779 | relative viability ([4]; first compound 3.162 µM): 0.549 | relative viability (kb NB 142-70 + Dasatinib; first compound 0.1 µM): 0.438 | relative viability (kb NB 142-70 + Dasatinib; first compound 1 µM): 0.464 | relative viability (kb NB 142-70 + Dasatinib; first compound 3.162 µM): 0.318

Source: the supplement of paper PMC10307832
